US12435088B2, “Salicyl-adenosinemonosulfamate analogs and uses thereof” (priority 2018, dated 2025)
≈ marks a conversion by molar mass, not a printed value. Where two headings read alike, the source gives them in different places. Marks after values point to notes of the source that are not given here.

Key:
Msm WT = assay: Growth inhibition microdilution assay, Msm WT; type: cell-based, Mycobacterium smegmatis
M. smegmatis ΔEM-pMbtAtb [1] = assay: microbe, parasite or virus in culture; type: cell-based, Mycobacterium smegmatis; settings: for MIC (μg/ml), mean / MIC (μg/ml), range: GASTD medium, three independent experiments
M. tuberculosis H37Rv = assay: Growth inhibition assay (Alamar Blue MIC) for M. tuberculosis H37Rv; type: cell-based, Mycobacterium tuberculosis; settings: at least 90% inhibition, 7 days
[2] = system: MBT production in Msm ΔEM-pMbtAtb; type: cell-based, Mycobacterium smegmatis; settings: FIG. 7, radio-TLC
mammalian cells = settings: cited from earlier work
Msm ΔM = type: cell-based, Mycobacterium smegmatis
Mtb = settings: cited from earlier work
Msm ΔEM = type: cell-based, Mycobacterium smegmatis; settings: GASTD + Fe medium
MbtAtb = MbtAtb (Mycobacterium tuberculosis (strain ATCC 25618 / H37Rv), UniProt P71716); settings: cited from earlier work
MbtAtb, sequence (P71716 whole entry, looked up): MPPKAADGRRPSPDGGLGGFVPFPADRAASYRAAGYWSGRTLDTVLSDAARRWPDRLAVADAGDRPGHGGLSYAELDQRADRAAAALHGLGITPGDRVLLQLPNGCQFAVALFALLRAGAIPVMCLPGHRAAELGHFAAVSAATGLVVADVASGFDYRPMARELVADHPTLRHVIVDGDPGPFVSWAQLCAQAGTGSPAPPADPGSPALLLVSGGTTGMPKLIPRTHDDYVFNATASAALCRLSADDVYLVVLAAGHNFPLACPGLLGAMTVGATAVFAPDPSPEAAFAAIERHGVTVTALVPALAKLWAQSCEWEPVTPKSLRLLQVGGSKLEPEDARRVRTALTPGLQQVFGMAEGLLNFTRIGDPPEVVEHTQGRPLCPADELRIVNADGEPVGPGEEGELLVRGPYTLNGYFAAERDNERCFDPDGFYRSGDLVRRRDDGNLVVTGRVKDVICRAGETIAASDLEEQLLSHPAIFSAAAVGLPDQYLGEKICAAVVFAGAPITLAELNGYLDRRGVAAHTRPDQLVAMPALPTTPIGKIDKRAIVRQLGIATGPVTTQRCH

Msm ΔE = type: cell-based, Mycobacterium smegmatis
M. smegmatis ΔEM-pMbtAtb [3] = assay: Post-antibiotic effect (PAE) washout assay
Procedure: Cells from mid-log growth phase cultures of Msm ΔEM-pMbtAtb in GASTD medium (37° C., 170 rpm, OD600≈0.75) were harvested by centrifugation and washed in GASTD medium (3 times with I culture volume). The washed cells were resuspended in GASTD medium and transferred to U-bottom 96-well cell culture plates (Corning, Inc.) for inhibitor exposure at a cell density corresponding to OD600=1.0 (50 μL/well). […] Inhibitors were added from 10% DMSO stock solutions, with a final DMSO concentration of 1% in both inhibitor-exposed cultures and DMSO controls (no inhibitor). […] The 96-well plates were incubated for culture growth at 37° C. in a FLUOstar Optima microplate reader (BMG Labtech, Inc.), and OD600 readings were taken every 30 min following plate shaking (5 min, 200 rpm) for 5 days. The growth vs. time datasets were analyzed to determine the time at which cultures reached an exponential growth phase threshold of OD600=0.05 (≈5% of maximal growth) (FIG. 8). The time-to-threshold data were used to calculate PAE as the difference between the time-to-threshold values of the inhibitor-exposed culture and the control cultures (Stubbings, W. J., et al. (2004) J. Antimicrob. Chemother. 54, 139-143). Data presented are derived from three independent experiments.

H10MbtA^opt (MbtAtb) [4] = molecular target: T1, H10MbtA^opt (MbtAtb) (Mycobacterium tuberculosis (strain ATCC 25618 / H37Rv), UniProt P71716); assay: Progress curve analysis of H10MbtA^opt inhibition (HA-MesG assay); type: biochemical
T1 sequence (P71716 whole entry, added parts left off): as the sequence (P71716 whole entry, looked up) above

H10MbtA^opt (MbtAtb) [5] = molecular target: T1, H10MbtA^opt (MbtAtb); assay: biochemical
PPT/PNP coupling system = assay: Off-target control: effect on PPT/PNP coupling system of the HA-MesG assay; type: biochemical
Procedure: The adenylation activity of H10MbtA^opt and its inhibition were evaluated using a H10MbtA^opt-optimized variation of the hydroxylamine-7-methyl-6-thioguanosine (HA-MesG) spectrophotometric assay (Wilson, D. J., et al. (2010) Anal. Biochem. 404, 56-63). The assay was carried out in a 96-well plate format as previously reported (Davis, T. D., et al. (2016) Bioorg. Med. Chem. Lett. 26, 5340-5345). The assay reaction mixture was optimized for H10MbtAopt activity. Optimization experiments included evaluation of various concentrations of Tris·HCl (and pH), hydroxylamine, MesG, ATP, NaCl, MgCl2, glycerol, reducing agents (DTT and TCEP), and detergent (IGEPAL, CHAPS, and Triton-X100). Unless otherwise indicated for specific experiments, the optimized assay reaction mixture contained the following: 50 mM Tris·HCl, pH 8.0; 3 mM MgCl2; 0.5 mM DTT; 0.1 U purine nucleoside phosphorylase (PNP); 0.04 U inorganic pyrophosphatase (PPT); 450 mM hydroxylamine; 0.4 mM MesG; 1 mM ATP; 300 μM salicylic acid; 0.01% CHAPS buffer; 7.5% ultrapure glycerol; and H10MbtA^opt at concentrations noted for specific experiments. […] Reactions were preincubated for 10 min at 25° C. before being initiated by the addition of either salicylic acid for steady state kinetic analysis or H10MbtA^opt for progress curve analysis. The phosphorolysis of MesG was measured continuously at either regular 1-min intervals (for steady state kinetic analysis) or 25-sec intervals (for progress curves analysis) for up to 45 min, at 360 nm and 25° C. in a DTX 880 multimode detector microplate reader (Beckman Coulter, Inc.).

[6] = Table 8, GASTD + Fe medium, tested up to 64 μg/mL
[7] = Mycolicibacterium smegmatis, read-out: MIC (μg/ml), mean
[8] = IC50 (nM), H10MbtA^opt at 250 nM, two independent dose-response experiments
[9] = IC50, preliminary dose-response experiment (vi/vo vs. log[inhibitor]), FIG. 4A-C, single experiment, inhibition of H10MbtA^opt

5′-O—[N-salicylsulfamoyl]adenosine [compound 1]
MIC (Msm WT; GASTD + Fe medium): >1000 µg/mL
MIC (Msm WT; GASTD medium (Fe-limiting)): >1000 µg/mL
MIC (M. smegmatis ΔEM-pMbtAtb [1]; Table 7, Msm ΔEM-pMbtAtb (−/+), GASTD + Fe medium): >1000 µg/mL
MIC (M. smegmatis ΔEM-pMbtAtb [1]; Table 7, Msm ΔEM-pMbtAtb (−/+), GASTD medium (Fe-limiting)): 0.5 to 1.0 µg/mL
MIC (M. smegmatis ΔEM-pMbtAtb [1]; [6]): >64 µg/mL
MIC (μg/ml), mean (M. smegmatis ΔEM-pMbtAtb [1]; Table 8): 0.83 ± 8.17 µg/mL
MIC (μg/ml), range (M. smegmatis ΔEM-pMbtAtb [1]; Table 8): 0.5-1.0^b μg/ml
MIC (M. tuberculosis H37Rv; GAST-D + Fe medium (100 μM FeCl3)): 0.5 to 1.0 µg/mL
MIC (M. tuberculosis H37Rv; GAST-D medium): 0.125 to 0.25 µg/mL
Effect on MBT production [2]: inhibited MBT production
Cytotoxicity against mammalian cells (mammalian cells): not cytotoxic
MIC (Msm ΔM; GASTD + Fe medium): >1000 µg/mL
MIC (Msm ΔM; GASTD medium (Fe-limiting)): >1000 µg/mL
Mtb growth in the mouse lung (Mtb; monotherapy at 5.6 or 16.7 mg/kg): significant reduction of Mtb growth in the mouse lung
Dose at which in vivo toxicity was observed (Mtb; mouse): ≥ 16.7 mg/kg
MIC (Msm ΔEM): >1000 µg/mL
Inhibition of MbtAtb (previous in vitro studies) (MbtAtb): potent, selective, tight-binding inhibitor
MIC (Msm ΔE; GASTD + Fe medium): >1000 µg/mL
MIC (Msm ΔE; GASTD medium (Fe-limiting)): 0.5 to 1.0 µg/mL
PAE (M. smegmatis ΔEM-pMbtAtb [3]; 1 h exposure at 5 × MIC): 9.4 ± 1.6 h
PAE (M. smegmatis ΔEM-pMbtAtb [3]; 1 h exposure at 50 × MIC): 14.2 ± 0.9 h
PAE (M. smegmatis ΔEM-pMbtAtb [3]; 1 h exposure at 100 × MIC): 34.5 ± 1.8 h

CN(C[C@H]1O[C@@H](n2cnc3c(N)ncnc32)[C@H](O)[C@@H]1O)S(=O)(=O)NC(=O)c1ccccc1O [4b, N—(N-(((2R,3S,4R,5R)-5-(6-Amino-9H-purin-9-yl)-3,4-dihydroxytetrahydrofuran-2-yl)-methyl)-N-methylsulfamoyl)-2-hydroxybenzamide]
MIC (M. smegmatis ΔEM-pMbtAtb [1]; [7]): 0.83 ± 0.17 µg/mL (≈ 1.73 µM)
MIC (μg/ml), range (M. smegmatis ΔEM-pMbtAtb [1]; Table 8): 0.5 to 1.0 µg/mL
Ki (H10MbtA^opt (MbtAtb) [4]): 159 ± 8.1 nM
IC50 (H10MbtA^opt (MbtAtb) [5]; [8]): 175 ± 4.3 nM
IC50 (H10MbtA^opt (MbtAtb) [5]; [9]): 179 nM
PAE (M. smegmatis ΔEM-pMbtAtb [3]; 1 h exposure at 5 × MIC): 13.4 ± 2.6 h
PAE (M. smegmatis ΔEM-pMbtAtb [3]; 1 h exposure at 50 × MIC): 17.4 ± 4.7 h
PAE (M. smegmatis ΔEM-pMbtAtb [3]; 1 h exposure at 100 × MIC): 10.4 ± 2.2 h

Nc1ncnc2c1ncn2[C@@H]1OC(CNS(=O)(=O)NC(=O)c2ccccc2O)[C@@H](O)[C@H]1O (some centres unmarked) [4a, salicyl-AMSN]
MIC (M. smegmatis ΔEM-pMbtAtb [1]; [6]): >64 µg/mL
MIC (μg/ml), mean (M. smegmatis ΔEM-pMbtAtb [1]; Table 8): 1.00 ± 0 µg/mL (≈ 2.15 µM)
MIC (μg/ml), range (M. smegmatis ΔEM-pMbtAtb [1]; Table 8): 1.0 µg/mL (≈ 2.15 µM)
Ki (H10MbtA^opt (MbtAtb) [4]; H10MbtA^opt 1 μM, inhibitor 4,000-1,041 nM, minimum of five independent experiments, read-out: Ki^app): 295 ± 23.9 nM
Fractional velocity v1/v0 (PPT/PNP coupling system; [inhibitor] = 4 μM): 0.94
Fractional velocity v1/v0 (PPT/PNP coupling system; [inhibitor] = 40 µM): 0.96
IC50 (H10MbtA^opt (MbtAtb) [5]; H10MbtA^opt at 250 nM, two independent dose-response experiments, read-out: IC50): 246 ± 2.9 nM
PAE (M. smegmatis ΔEM-pMbtAtb [3]; 1 h exposure at 5 × MIC): 10.6 ± 2.7 h
PAE (M. smegmatis ΔEM-pMbtAtb [3]; 1 h exposure at 50 × MIC): 18.7 ± 1.3 h
PAE (M. smegmatis ΔEM-pMbtAtb [3]; 1 h exposure at 100 × MIC): 23.1 ± 3.1 h

COc1ncnc2c1ncn2[C@@H]1O[C@H](CNS(=O)(=O)NC(=O)c2ccccc2O)[C@@H](O)[C@H]1O [compound 6, N—(N-(((2R,3S,4R,5R)-3,4-Dihydroxy-5-(6-methoxy-9H-purin-9-yl)tetrahydrofuran-2-yl)methyl)sulfamoyl)-2-hydroxybenzamide]
MIC (M. smegmatis ΔEM-pMbtAtb [1]; [7]): 5.33 ± 1.33 µg/mL (≈ 11.1 µM)
MIC (M. smegmatis ΔEM-pMbtAtb [1]; [6]): >64 µg/mL
MIC (μg/ml), range (M. smegmatis ΔEM-pMbtAtb [1]; Table 8): 4.0 to 8.0 µg/mL
MIC (M. tuberculosis H37Rv; Mycobacterium tuberculosis, H37RV, 168 h, GAST-D + Fe medium (100 μM FeCl3), read-out: MIC): 0.5 to 1 µg/mL
MIC (M. tuberculosis H37Rv; Mycobacterium tuberculosis, H37RV, 168 h, GAST-D medium, read-out: MIC): 0.125 to 0.25 µg/mL (≈ 0.26 to 0.52 µM)
Ki (H10MbtA^opt (MbtAtb) [4]): 277 ± 12.2 nM
Mechanism of inhibition from progress curves (H10MbtA^opt (MbtAtb) [4]; time-dependent inhibition of H10MbtAopt): slow-onset inhibitors
Fractional velocity v1/v0 (PPT/PNP coupling system; [inhibitor] = 4 μM): 1.00
Fractional velocity v1/v0 (PPT/PNP coupling system; [inhibitor] = 40 µM): 1.00
Inhibitor behavior (IC50≈½ [E]) (H10MbtA^opt (MbtAtb) [5]; HA-MesG assay): tight-binding inhibitor behavior
IC50 (H10MbtA^opt (MbtAtb) [5]; [8]): 289 ± 16.4 nM
IC50 (H10MbtA^opt (MbtAtb) [5]; [9]): 273 nM

O=C(NS(=O)(=O)O)c1ccccc1O [compound 8, salicyl-sulfamate]
IC50 (H10MbtA^opt (MbtAtb) [5]; IC50 (mM), effect on the MbtAtb-dependent signal in the HA-MesG assay, salicyl-AMS fragments, nonspecific inhibition control): ~1e+06 nM
